Among the data in ChEMBL document CHEMBL1142172, “Curing Mycobacterium ulcerans infection in mice with a combination of rifampin-streptomycin or rifampin-amikacin” (2007) are Log10 cfu values, retold here.

Molecules are shown by their SMILES.

Experiment [1] deals with Mycobacterium ulcerans. The experiment is described as follows: Antimycobacterial activity in Mycobacterium ulcerans Cu001 infected BALB/c mouse assessed as mean number of CFU per foot-pad at […], sc after 2 weeks. It counts as functional.
Experiment [2] relates to Mycobacterium ulcerans. Put plainly: Antimycobacterial activity in Mycobacterium ulcerans Cu001 infected BALB/c mouse assessed as mean number of CFU per foot-pad at 10 mg/kg, sc after 2 weeks. To be noted: route subcutaneous. It counts as functional.

`CN[C@@H]1[C@H](O[C@H]2[C@H](O[C@H]3[C@H](O)[C@@H](O)[C@H](N=C(N)N)[C@@H](O)[C@@H]3N=C(N)N)O[C@@H](C)[C@]2(O)C=O)O[C@@H](CO)[C@H](O)[C@H]1O` [STREPTOMYCIN]: the Log10 cfu with Mycobacterium ulcerans [1] was 4.13. For the compound `CO[C@H]1/C=C/O[C@@]2(C)Oc3c(C)c(O)c4c(O)c(c(/C=N/N5CCN(C)CC5)c(O)c4c3C2=O)NC(=O)/C(C)=C\C=C\[C@H](C)[C@H](O)[C@@H](C)[C@@H](O)[C@@H](C)[C@H](OC(C)=O)[C@@H]1C` [RIFAMPIN], in the experiment on Mycobacterium ulcerans [2], the Log10 cfu was determined as 4.13. As to `NCC[C@H](O)C(=O)N[C@@H]1C[C@H](N)[C@@H](O[C@H]2O[C@H](CN)[C@@H](O)[C@H](O)[C@H]2O)[C@H](O)[C@H]1O[C@H]1O[C@H](CO)[C@@H](O)[C@H](N)[C@H]1O` [AMIKACIN], the Log10 cfu with Mycobacterium ulcerans [1] was 3.92.
